{"source": "paper PMC8978187", "about": "“Feasibility, Biodistribution, and Preliminary Dosimetry in Peptide-Targeted Radionuclide Therapy of Diverse Adenocarcinomas Using ^177Lu-FAP-2286: First-in-Humans Results” (Journal of Nuclear Medicine, 2022)", "origin": "cited, not measured here", "key": {"tumor": {"test_system": "tumor", "details": "compared with ^177Lu-FAP-2286", "description": "In our patient cohort, FAP expression was confirmed in these malignancies on PET/CT using ^68Ga-FAP-2286 or ^68Ga-FAPI-04."}, "[1]": {"details": "patients", "description": "These findings were further corroborated by dosimetric studies."}}, "note": "Where two headings read alike, the source gives them in different places.", "data": [{"compound": "N#C[C@@H]1CC(F)(F)CN1C(=O)CNC(=O)c1ccnc2ccc(OCCCN3CCN(C(=O)CN4CCN(CC(=O)O)CCN(CC(=O)O)CCN(CC(=O)O)CC4)CC3)cc12", "note": "[FAPI-04]", "values": [{"measurement": "tumor washout and tumor retention time", "setting": "tumor", "value": "earlier tumor washout and a correspondingly shorter tumor retention time"}]}, {"compound": "O=C([O-])CN1CCN(CC(=O)[O-])CCN(CC(=O)NCC2CCC(C(=O)N[C@@H](Cc3ccc4ccccc4c3)C(=O)NCCCC[C@H](NC(=O)N[C@@H](CCC(=O)O)C(=O)O)C(=O)O)CC2)CCN(CC(=O)[O-])CC1.[177Lu+3]", "note": "(some centres unmarked) [^177Lu-PSMA-617]", "values": [{"measurement": "bone marrow absorbed dose", "setting": "[1]", "value": 0.03, "unit": "Gy/GBq"}, {"measurement": "effective half-life in the kidneys", "setting": "[1]", "value": 42, "unit": "h"}, {"measurement": "effective half-life in the whole body", "setting": "[1]", "value": 40, "unit": "h"}, {"measurement": "kidney absorbed dose", "setting": "[1]", "value": 0.99, "unit": "Gy/GBq"}, {"measurement": "whole-body absorbed dose", "setting": "[1]", "value": 0.04, "unit": "Gy/GBq"}, {"measurement": "kidney absorbed dose, range", "setting": "[1]; range", "value": "0.45–1.6 Gy/GBq"}, {"measurement": "absorbed dose in bone metastases", "setting": "[1]; reported by Kulkarni et al.", "value": 2.9, "unit": "Gy/GBq"}, {"measurement": "absorbed dose in bone metastases", "setting": "[1]; reported by Violet et al.", "value": 5.3, "unit": "Gy/GBq"}, {"measurement": "absorbed dose in bone metastases, range", "setting": "[1]; reported by Violet et al., range", "value": "0.4–10.7 Gy/GBq"}]}, {"compound": "N#C[C@@H]1CCCN1C(=O)CNC(=O)c1ccnc2ccc(OCCCN3CCN(C(=O)CN4CCN(CC(=O)O)CCN(CC(=O)O)CCN(CC(=O)O)CC4)CC3)cc12", "note": "[FAPI-02]", "values": [{"measurement": "tumor washout and tumor retention time", "setting": "tumor", "value": "earlier tumor washout and a correspondingly shorter tumor retention time"}]}]}
